Test results from patent US20250263426A1, “PDE4B INHIBITOR AND USE THEREOF” (Xizang Haisco Pharmaceutical Co., Ltd., priority 2022, published 2025).
Like-named read-outs stand apart in the source and are kept apart here.

Experiments:
PDE4B2 = PDE4B2 (Homo sapiens (Human), UniProt Q07343); experiment: Effect of compounds on PDE4B2 activity (fluorescence polarization kit)
Description: [formula] • I∥ (S535): fluorescence intensity in parallel direction • I⊥ (P535): fluorescence intensity in perpendicular direction • G: G factor=1

PDE4D2 = PDE4D2 (Homo sapiens (Human), UniProt Q08499); experiment: Effect of compounds on PDE4D2 activity (fluorescence polarization kit); type: biochemical
Description: FP was usually represented by mP value.
[formula] • I∥ (S520): fluorescence intensity in parallel direction • I⊥ (P520): fluorescence intensity in perpendicular direction • G: G factor=1
[formula] • mP(sample): mP of the test compound in a reaction well • mP(negative control): mP in the negative control well • mP(positive control): mP in the positive control well
According to the calculated inhibition rate at each concentration, the IC50 value of each compound was calculated by GraphPad Prism 8 software.

[1] = test system: human peripheral blood mononuclear cells (TNF-α release); experiment: Inhibition of LPS-induced TNF-α release from human peripheral blood mononuclear cells in vitro; type: cell-based; details: 4 h; for Emax: read-out: Max inhibition (%)
Description: 5. Detection of Inhibitory Activity of Compounds on the Release of Tumor Necrosis Factor-α (TNF-α) from Human Peripheral Blood Mononuclear Cells Induced by Lipopolysaccharide (LPS) In Vitro
The concentration of hPBMC cells was adjusted to 0.25×10^6 cells/mL with RPMI1640 medium and inoculated into a 96-well plate in an amount of 50000 cells per well. […] Incubation was carried out for 4 h in an incubator at 37° C. and 5% CO2. The cell supernatant was collected, and the content of TNF-α in the supernatant sample was detected by human TNF-α Elisa quantitative test kit (Sino Biological, Cat #KIT10602). The IC50 value was calculated using GraphPad Prism software.

[2] = Homo sapiens, PBMC, read-out: Re IC50
[3] = relative IC50, hPBMC, 100 ng/mL LPS, read-out: Re IC50
[4] = Homo sapiens, PBMC, hPBMC, 100 ng/mL LPS
[5] = Homo sapiens, PBMC, read-out: Re IC50 (nM)

Sequence of PDE4D2 (Q08499 303-809, change not shown): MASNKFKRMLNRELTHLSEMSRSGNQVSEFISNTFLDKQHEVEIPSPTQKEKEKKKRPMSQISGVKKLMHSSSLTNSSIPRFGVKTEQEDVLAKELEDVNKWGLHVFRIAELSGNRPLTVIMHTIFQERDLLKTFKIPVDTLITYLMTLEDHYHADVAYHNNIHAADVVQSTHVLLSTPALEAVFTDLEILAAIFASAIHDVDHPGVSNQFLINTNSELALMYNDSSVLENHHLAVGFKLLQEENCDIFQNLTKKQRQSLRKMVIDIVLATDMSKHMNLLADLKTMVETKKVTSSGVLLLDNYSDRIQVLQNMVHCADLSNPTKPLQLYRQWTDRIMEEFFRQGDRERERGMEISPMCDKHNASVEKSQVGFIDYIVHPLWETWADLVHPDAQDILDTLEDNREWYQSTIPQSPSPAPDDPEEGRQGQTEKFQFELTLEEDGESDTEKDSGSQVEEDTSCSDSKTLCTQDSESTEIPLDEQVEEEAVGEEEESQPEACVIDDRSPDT
Sequence of PDE4B2 (Q07343 other isoform, or with tags, fused parts or gaps): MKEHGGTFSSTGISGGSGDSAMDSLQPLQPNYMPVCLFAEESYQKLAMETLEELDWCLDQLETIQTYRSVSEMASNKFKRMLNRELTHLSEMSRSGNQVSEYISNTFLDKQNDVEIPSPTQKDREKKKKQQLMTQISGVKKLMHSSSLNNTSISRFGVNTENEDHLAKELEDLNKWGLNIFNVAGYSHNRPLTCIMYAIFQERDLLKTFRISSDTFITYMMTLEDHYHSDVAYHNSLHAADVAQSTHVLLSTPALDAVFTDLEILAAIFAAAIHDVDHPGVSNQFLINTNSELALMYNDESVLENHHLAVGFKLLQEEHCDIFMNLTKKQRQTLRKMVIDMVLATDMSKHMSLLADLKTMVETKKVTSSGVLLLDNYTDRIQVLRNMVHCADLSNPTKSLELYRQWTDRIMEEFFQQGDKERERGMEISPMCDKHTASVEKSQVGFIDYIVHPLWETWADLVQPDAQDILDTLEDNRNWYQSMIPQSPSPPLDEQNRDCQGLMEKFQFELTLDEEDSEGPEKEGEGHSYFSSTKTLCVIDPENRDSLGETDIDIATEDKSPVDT

Compound | IC50 (PDE4B2) [nM] | IC50 (PDE4D2) [nM] | IC50 [1, 2] [nM] | IC50 (PDE4B2; read-out: PDE4B2 IC50) [nM] | Max inhibition (%) ([1]; hPBMC, 100 ng/mL LPS) | IC50 [1, 3] [nM] | Emax [1, 4] [%] | Emax ([1]; Homo sapiens, PBMC) [%] | IC50 [1, 5] [nM]
NC(=O)OCC1(Nc2nc(N3CC=C(c4nc5ccccc5s4)CC3)nc3c2[S@+]([O-])CC3)CCC1 [Compound 56] | < 10 | < 10 | < 10 |  |  |  |  |  | 
COC(=O)NCC(C)(C)Nc1nc(N2C[C@@H]3CC(c4ncc5c(n4)CC5)=C[C@@H]3C2)nc2c1[S@+]([O-])CC2 [Compound 139-1] |  | < 10 |  | < 10 | 92.69 | < 10 |  |  | 
C#Cc1cnc(C2=CCN(c3nc4c(c(NC5([C@H](C)O)CCC5)n3)[S@@+]([O-])CC4)CC2)nc1 [Compound 96-4] |  | 10 to 50 |  | 10 to 50 | 70.23 | 10 to 50 |  |  | 
C#Cc1cnc(C2=CCN(c3nc4c(c(NC5(COC(N)=O)CCC5)n3)[S@+]([O-])CC4)CC2)nc1 [Compound 35] | < 10 | < 10 | < 10 |  |  |  | 85.1 |  | 
[O-][S+]1CCc2nc(N3CCN4c5ccccc5OC[C@@H]4C3)nc(NC3(CO)COC3)c21 (some centres unmarked) [Compound 72-4] |  | < 10 |  | < 10 | 62.45 | < 10 |  |  | 
C#Cc1ccc(C2=CCN(c3nc4c(c(NC(C)(C)COC(N)=O)n3)[S@+]([O-])CC4)CC2)nc1 [Compound 105] | < 10 | < 10 | < 10 |  |  |  | 84 |  | 
C#Cc1cnc(C2=CCN(c3nc4c(c(NC5(COC(F)F)CCC5)n3)[S+]([O-])CC4)CC2)nc1 (centres unmarked) [Compound 63] | < 10 | < 10 | 10 to 50 |  |  |  | 72.7 |  | 
CC#Cc1ccc(C2=CCN(c3nc4c(c(NC(C)(C)COC(N)=O)n3)[S@+]([O-])CC4)CC2)nc1 [Compound 101] | < 10 | < 10 | < 10 |  |  |  | 80 |  | 
CNC(=O)OCC1(Nc2nc(N3CC=C(c4ncc(C5CC5)cn4)CC3)nc3c2[S@+]([O-])CC3)CCC1 [Compound 90] | 10 to 50 | 10 to 50 | 10 to 50 |  |  |  | 69.5 |  | 
[O-][S+]1CCc2nc(N3CCN4c5ccccc5OC[C@H]4C3)nc(NC3(CO)COC3)c21 (some centres unmarked) [Compound 72-3] |  | 10 to 50 |  | < 10 | 65.66 | < 10 |  |  | 
NCC1(Nc2nc(N3CC=C(c4nc5ccccc5s4)CC3)nc3c2[S@+]([O-])CC3)CCC1 [Compound 78] | 10 to 50 | 10 to 50 | 10 to 50 |  |  |  | 77.4 |  | 
NC(=O)OCC1(Nc2nc(N3CC=C(c4ncc(Cl)cn4)CC3)nc3c2[S@+]([O-])CC3)CCCC1 [Compound 52] | < 10 | < 10 | 10 to 50 |  |  |  |  |  | 
C#Cc1cnc(C2=CCN(c3nc4c(c(NC5(CN/C(C)=N/C#N)CCC5)n3)[S@+]([O-])CC4)CC2)nc1 [Compound 39] | < 10 | < 10 | < 10 |  |  |  | 71.1 |  | 
[O-][S@+]1CCc2nc(N3CC4CN(c5ccc6c(c5)CC6)CC4C3)nc(Nc3cccc(F)c3)c21 (some centres unmarked) [Compound 76-1] |  | 10 to 50 |  | < 10 | 74.65 | 10 to 50 |  |  | 
COC(=O)NCC(C)(C)Nc1nc(N2CC=C(c3ncc(C4CC4)cn3)CC2)nc2c1[S@+]([O-])CC2 [Compound 117] | 10 to 50 | 10 to 50 | 10 to 50 |  |  |  | 86 |  | 
NC(=O)OCC1(Nc2nc(N3CC=C(c4ncc(Cl)cn4)CC3)nc3c2[S@+]([O-])CC3)CCC1 [Compound 48] | < 10 | < 10 | 10 to 50 |  |  |  | 73.9 |  | 
NC(=O)OCC1(Nc2nc(N3CC=C(c4nc5ccccc5o4)CC3)nc3c2[S@+]([O-])CC3)CCC1 [Compound 49] |  | < 10 |  | < 10 | 73.46 | < 10 |  |  | 
CC#Cc1ccc(C2=CCN(c3nc4c(c(NC5(CNC(=O)OC)CCC5)n3)[S@+]([O-])CC4)CC2)nc1 [Compound 100] | < 10 | < 10 | < 10 |  |  |  | 79.2 |  | 
C#Cc1cnc(C2=CCN(c3nc4c(c(NC5(C(C)O)CCC5)n3)[S@+]([O-])CC4)CC2)nc1 (some centres unmarked) [Compound 66] | < 10 | < 10 |  |  |  |  |  | 67.1 | 10 to 50

Compound | IC50 (PDE4B2) [nM] | IC50 (PDE4D2) [nM] | IC50 [1, 2] [nM] | IC50 (PDE4B2; read-out: PDE4B2 IC50) [nM] | Max inhibition (%) ([1]; hPBMC, 100 ng/mL LPS) | IC50 [1, 3] [nM] | Emax [1, 4] [%] | Emax ([1]; Homo sapiens, PBMC) [%] | IC50 [1, 5] [nM]
COC(=O)NCC1(Nc2nc(N3CC=C(c4nc5ccccc5s4)CC3)nc3c2[S@+]([O-])CC3)CCC1 [Compound 79] | < 10 | < 10 | 10 to 50 |  |  |  | 65.5 |  | 
C#Cc1ccc(C2=CCN(c3nc4c(c(NC5(CNC(=O)OC)CCC5)n3)[S@+]([O-])CC4)CC2)nc1 [Compound 69] | < 10 | < 10 | < 10 |  |  |  | 70.9 |  | 
COC(=O)NCC1(Nc2nc(N3CC=C(c4ncc(Cl)cn4)CC3)nc3c2[S@+]([O-])CC3)CCC1 [Compound 70] | < 10 | < 10 | < 10 |  |  |  | 55.4 |  | 
CC#Cc1cnc2c(c1)OC[C@@H]1CN(c3nc4c(c(NC(C)(C)COC(N)=O)n3)[S@+]([O-])CC4)CCN21 [Compound 112-1] |  | 10 to 50 |  | < 10 | 83.76 | 10 to 50 |  |  | 
C#Cc1cnc(C2=CCN(c3nc4c(c(NC5(COC)CCC5)n3)[S@+]([O-])CC4)CC2)nc1 [Compound 64] | < 10 | < 10 | 10 to 50 |  |  |  | 79.9 |  | 
C#Cc1cnc(C2=CCN(c3nc4c(c(NC5([C@@H](C)O)CCC5)n3)[S@+]([O-])CC4)CC2)nc1 [Compound 96-1] |  | 10 to 50 |  | < 10 | 72.83 | < 10 |  |  | 
C#Cc1ccc(N2CCN(c3nc4c(c(NC5(CO)CCC5)n3)[S+]([O-])CCC4)CC2)cc1 (centres unmarked) [Compound 41] | < 10 | 10 to 50 |  |  |  |  |  | 69.8 | 10 to 50
CC(C)(COC(N)=O)Nc1nc(N2CC=C(c3ncc(N4CC[Si](C)(C)CC4)cn3)CC2)nc2c1[S@+]([O-])CC2 [Compound 106] |  | 10 to 50 |  | 10 to 50 | 98.36 | 10 to 50 |  |  | 
NC(=O)OCC1(Nc2nc(N3C[C@H]4CC(c5ccc(Cl)cc5)=C[C@H]4C3)nc3c2[S@+]([O-])CC3)CCC1 [Compound 44] |  | 10 to 50 |  | < 10 | 77.27 | 10 to 50 |  |  | 
C#Cc1ccc(C2=CCN(c3nc4c(c(NC5([C@H](C)O)CCC5)n3)[S@+]([O-])CC4)CC2)nc1 [Compound 95-2] |  | < 10 |  | < 10 | 70.67 | < 10 |  |  | 
COC(=O)NCC(C)(C)Nc1nc(N2CC=C(c3ncc(Cl)cn3)CC2)nc2c1[S@+]([O-])CC2 [Compound 88] |  | < 10 |  | < 10 | 74.9 | < 10 |  |  | 
CN1C[C@@H](Nc2nc(N3C[C@H]4CN(c5ccc6c(c5)CC6)C[C@H]4C3)nc3c2[S@@+]([O-])CC3)CCC1=O [Compound 109-4] |  | < 10 |  | < 10 | 85.74 | < 10 |  |  | 
Cc1coc(C2=CCN(c3nc4c(c(NC5(COC(N)=O)CCC5)n3)[S@+]([O-])CC4)CC2)n1 [Compound 50] | < 10 | < 10 | < 10 |  |  |  | 72.1 |  | 
Cc1cnc2c(c1)OC[C@H]1CN(c3nc4c(c(NC(C)(C)COC(N)=O)n3)[S@+]([O-])CC4)CCN21 [Compound 142-2] |  | 10 to 50 |  | 10 to 50 |  |  |  |  | 
C#Cc1cnc(C2=CCN(c3nc4c(c(NC5([C@@H](C)O)CCC5)n3)[S@@+]([O-])CC4)CC2)nc1 [Compound 96-3] |  | 10 to 50 |  | < 10 |  |  |  |  | 
CN(C)c1cnc(C2=CCN(c3nc4c(c(NC(C)(C)COC(N)=O)n3)[S@+]([O-])CC4)CC2)nc1 [Compound 138] | 10 to 50 | 10 to 50 |  |  |  |  |  |  | 
CC(C)(COC(N)=O)Nc1nc(N2CC=C(c3ncc(C4CCC4)cn3)CC2)nc2c1[S@+]([O-])CC2 [Compound 126] | < 10 | 10 to 50 |  |  |  |  |  |  | 
CC(C)(CC#N)Nc1nc(N2CC=C(c3ncc(C4CC4)cn3)CC2)nc2c1[S@+]([O-])CC2 [Compound 134] |  | < 10 |  | < 10 |  |  |  |  | 

Now from value to molecule, other results behind:

IC50 (PDE4B2) [nM] | IC50 (PDE4D2) [nM] | IC50 [1, 2] [nM] | Compound | IC50 (PDE4B2; read-out: PDE4B2 IC50) [nM] | Max inhibition (%) ([1]; hPBMC, 100 ng/mL LPS) | IC50 [1, 3] [nM] | Emax [1, 4] [%] | Emax ([1]; Homo sapiens, PBMC) [%] | IC50 [1, 5] [nM]
< 10 | 10 to 50 | < 10 | COC(=O)NCC1(Nc2nc(N3C[C@H]4CC(c5ncc(Cl)cn5)=C[C@H]4C3)nc3c2[S@+]([O-])CC3)CCC1 [Compound 73-2] |  |  |  | 67.9 |  | 
< 10 | < 10 | < 10 | COC(=O)NCC1(Nc2nc(N3C[C@@H]4CC(c5ncc(Cl)cn5)=C[C@@H]4C3)nc3c2[S@+]([O-])CC3)CCC1 [Compound 73-1] |  |  |  | 67.5 |  | 
 | 10 to 50 |  | [O-][S+]1CCc2nc(N3C[C@@H]4CC(c5ccc(Cl)cc5)=C[C@@H]4C3)nc(NC3CN(CCCF)C3)c21 (single isomer, unassigned) [Compound 24-2] | < 10 |  |  |  |  | 
